pEC50: −log10 of the molar value.
Test system: full-length lungfish MR
Experiment: luciferase reporter transactivation
Assay type: cell-based, Protopterus dolloi
Settings: agonist; HEK293, TAT3-luc promoter

| SMILES | pEC50 |
| --- | --- |
| C[C@]12CC[C@H]3[C@@H](CCC4=CC(=O)CC[C@@]43C)[C@@H]1CC[C@@H]2C(=O)CO [11-deoxycorticosterone] | 10.40 |
| C[C@]12CCC(=O)C=C1CC[C@@H]1[C@@H]2CC[C@@]2(C)[C@H]1CC[C@]2(O)C(=O)CO [11-deoxycortisol] | 9.77 |
| C[C@]12CCC(=O)C=C1CC[C@@H]1[C@@H]2[C@@H](O)C[C@]2(C=O)[C@@H](C(=O)CO)CC[C@@H]12 [aldosterone] | 10.40 |
| C[C@]12C[C@H](O)[C@H]3[C@@H](CCC4=CC(=O)CC[C@@]43C)[C@@H]1CC[C@@H]2C(=O)CO [corticosterone] | 7.64 |
| C[C@]12CCC(=O)C=C1CC[C@@H]1[C@@H]2[C@@H](O)C[C@@]2(C)[C@H]1CC[C@]2(O)C(=O)CO [cortisol] | 7.18 |
| C[C@@H]1C[C@H]2[C@@H]3CCC4=CC(=O)C=C[C@]4(C)[C@@]3(F)[C@@H](O)C[C@]2(C)[C@@]1(O)C(=O)CO [dexamethasone] | 8.33 |
| CC(=O)[C@H]1CC[C@H]2[C@@H]3CCC4=CC(=O)CC[C@]4(C)[C@H]3CC[C@]12C [progesterone] | 10.52 |
| C[C@]12C=CC(=O)C=C1CC[C@H]1[C@@H]3C[C@@H](O)[C@](O)(C(=O)CO)[C@@]3(C)C[C@H](O)[C@@]12F [triamcinolone] | 8.89 |

Test system: truncated lungfish MR (MR-CDE)
Experiment: luciferase reporter transactivation
Assay type: cell-based, Protopterus dolloi
Settings: agonist; HEK293, TAT3-luc promoter

| SMILES | pEC50 |
| --- | --- |
| C[C@]12CC[C@H]3[C@@H](CCC4=CC(=O)CC[C@@]43C)[C@@H]1CC[C@@H]2C(=O)CO [11-deoxycorticosterone] | 9.89 |
| C[C@]12CCC(=O)C=C1CC[C@@H]1[C@@H]2CC[C@@]2(C)[C@H]1CC[C@]2(O)C(=O)CO [11-deoxycortisol] | 9.57 |
| C[C@]12CCC(=O)C=C1CC[C@@H]1[C@@H]2[C@@H](O)C[C@]2(C=O)[C@@H](C(=O)CO)CC[C@@H]12 [aldosterone] | 9.62 |
| C[C@]12C[C@H](O)[C@H]3[C@@H](CCC4=CC(=O)CC[C@@]43C)[C@@H]1CC[C@@H]2C(=O)CO [corticosterone] | 7.07 |
| C[C@]12CCC(=O)C=C1CC[C@@H]1[C@@H]2[C@@H](O)C[C@@]2(C)[C@H]1CC[C@]2(O)C(=O)CO [cortisol] | 7.06 |
| C[C@@H]1C[C@H]2[C@@H]3CCC4=CC(=O)C=C[C@]4(C)[C@@]3(F)[C@@H](O)C[C@]2(C)[C@@]1(O)C(=O)CO [dexamethasone] | 8.11 |
| CC(=O)[C@H]1CC[C@H]2[C@@H]3CCC4=CC(=O)CC[C@]4(C)[C@H]3CC[C@]12C [progesterone] | 10.36 |
| C[C@]12C=CC(=O)C=C1CC[C@H]1[C@@H]3C[C@@H](O)[C@](O)(C(=O)CO)[C@@]3(C)C[C@H](O)[C@@]12F [triamcinolone] | 8.62 |
